Assay results: patent US9156845B2, “4-(substituted amino)-7H-pyrrolo[2,3-d] pyrimidines as LRRK2 inhibitors” (Pfizer Inc., priority 2012, dated 2015)
Where a name gives a salt, the structure may show the parent alone.

Assays:
mutant G2019S LRRK2 = mutant G2019S LRRK2 (Homo sapiens (Human), UniProt Q5S007, G2019S); assay: LRRK2 Lantha Screen kinase assay, mutant enzyme; format: biochemical; conditions: geometric mean of 2-5 determinations unless otherwise indicated (a: >=6 determinations; b: single determination)
Chain of mutant G2019S LRRK2 (Q5S007 970-2527 G2019S): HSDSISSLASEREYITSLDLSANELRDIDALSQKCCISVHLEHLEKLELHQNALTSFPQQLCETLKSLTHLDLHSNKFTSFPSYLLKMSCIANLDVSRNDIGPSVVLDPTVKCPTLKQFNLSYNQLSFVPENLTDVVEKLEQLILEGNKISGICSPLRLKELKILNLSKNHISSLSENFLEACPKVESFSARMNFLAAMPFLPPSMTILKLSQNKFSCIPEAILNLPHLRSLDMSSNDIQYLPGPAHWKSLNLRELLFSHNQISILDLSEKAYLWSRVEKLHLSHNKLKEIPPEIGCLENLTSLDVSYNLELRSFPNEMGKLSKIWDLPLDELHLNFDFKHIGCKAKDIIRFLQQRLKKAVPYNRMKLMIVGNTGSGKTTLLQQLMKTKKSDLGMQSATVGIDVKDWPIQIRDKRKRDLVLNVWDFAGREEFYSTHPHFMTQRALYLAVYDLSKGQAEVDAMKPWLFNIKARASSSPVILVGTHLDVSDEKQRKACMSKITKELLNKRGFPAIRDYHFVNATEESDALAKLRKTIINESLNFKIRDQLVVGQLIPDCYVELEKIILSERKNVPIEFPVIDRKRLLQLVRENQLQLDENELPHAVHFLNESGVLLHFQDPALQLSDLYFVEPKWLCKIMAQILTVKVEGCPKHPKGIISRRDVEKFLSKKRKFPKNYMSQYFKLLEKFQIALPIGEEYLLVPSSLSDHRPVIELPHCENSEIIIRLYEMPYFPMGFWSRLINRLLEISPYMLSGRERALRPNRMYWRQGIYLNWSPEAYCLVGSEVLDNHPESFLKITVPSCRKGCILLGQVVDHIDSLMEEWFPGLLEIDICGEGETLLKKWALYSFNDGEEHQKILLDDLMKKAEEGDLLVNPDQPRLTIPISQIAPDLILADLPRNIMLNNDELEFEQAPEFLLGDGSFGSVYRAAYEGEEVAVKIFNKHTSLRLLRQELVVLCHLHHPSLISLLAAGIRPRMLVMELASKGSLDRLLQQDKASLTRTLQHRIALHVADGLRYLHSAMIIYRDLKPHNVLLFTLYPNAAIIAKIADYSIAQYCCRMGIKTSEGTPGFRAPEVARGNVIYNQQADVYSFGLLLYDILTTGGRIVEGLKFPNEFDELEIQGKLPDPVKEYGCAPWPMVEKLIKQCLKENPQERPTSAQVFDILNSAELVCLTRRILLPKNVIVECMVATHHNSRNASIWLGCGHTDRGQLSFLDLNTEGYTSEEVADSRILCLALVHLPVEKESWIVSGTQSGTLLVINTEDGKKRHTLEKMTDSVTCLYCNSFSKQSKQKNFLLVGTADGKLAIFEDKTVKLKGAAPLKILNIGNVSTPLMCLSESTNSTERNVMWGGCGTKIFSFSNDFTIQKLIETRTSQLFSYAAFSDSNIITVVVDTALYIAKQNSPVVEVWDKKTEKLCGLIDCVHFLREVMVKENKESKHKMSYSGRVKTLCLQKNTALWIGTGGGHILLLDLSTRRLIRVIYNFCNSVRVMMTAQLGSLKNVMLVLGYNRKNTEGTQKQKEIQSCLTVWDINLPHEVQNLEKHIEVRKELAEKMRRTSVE
Description: (§1) LRRK2 kinase activity was measured using Lantha Screen technology from Invitrogen. GST-tagged truncated LRRK2 from Invitrogen (Cat # PV4874) was incubated with a fluorescein-labeled peptide substrate based upon ezrin/radixin/moesin (ERM), also known as LRRKtide (Invitrogen cat #PR8976A), in the presence of a dose response of compound. Upon completion, the assay was stopped and detected with a terbium labeled anti-phospho-ERM antibody (Invitrogen, cat #PR8975A). […] Aliquots (3.5 μL) of the 100% DMSO dose response were mixed with 46.5 μL water then 1 μL of this mixture was added to the 3 μL substrate mix in the 384-well plate. The kinase reaction was started with 3 μL of a working solution of LRRK2 enzyme at a concentration of 4 μg/mL. […] The reaction was allowed to progress at room temperature for two hours and then stopped with the addition of 7 μL of detection buffer (20 mM Tris pH 7.6, 0.01% NP-40, 0.02% NaN3, 6 mM EDTA with 2 nM terbium labeled anti-phospho-ERM).
All final concentrations of substrate ATP and enzyme were the same.

[1] = target: GST-tagged truncated LRRK2 (Homo sapiens (Human), UniProt Q5S007); assay: LRRK2 Lantha Screen kinase assay; format: biochemical; conditions: geometric mean of 2-5 determinations unless otherwise indicated (a: >=6 determinations; b: single determination); read-out: LRRK2 WT IC50
Chain of GST-tagged truncated LRRK2 (Q5S007 970-2527): as the sequence (Q5S007 970-2527 G2019S) above, with S1050G counted along it
Description: as §1

Row | Compound | IC50 (mutant G2019S LRRK2) [nM] | IC50 [1] [nM]
1 | N#Cc1cccc(-c2c[nH]c3ncnc(N4CCCC(C#N)C4)c23)c1 (stereo not drawn) [Example 21, 1-[5-(3-cyanophenyl)-7H-pyrrolo[2,3-d]pyrimidin-4-yl]piperidine-3-carbonitrile] | 183 | 57
2 | N#Cc1cccc(-c2c[nH]c3ncnc(N4CCOC(c5cc[nH]n5)C4)c23)c1 (single isomer, unassigned) [Example 76, 3-{4-[2-(1H-pyrazol-3-yl)morpholin-4-yl]-7H-pyrrolo[2,3-d]pyrimidin-5-yl}benzonitrile] | 208 | 23
3 | N#Cc1cccc(-c2c[nH]c3ncnc(N4CCOC(C#N)C4)c23)c1 (stereo not drawn) [Example 209, 4-[5-(3-cyanophenyl)-7H-pyrrolo[2,3-d]pyrimidin-4-yl]morpholine-2-carbonitrile] | 336 | 42.2
4 | CNc1ncnc2[nH]cc(-c3cccc(C#N)c3)c12 [Example 64, 3-[4-(methylamino)-7H-pyrrolo[2,3-d]pyrimidin-5-yl]benzonitrile] | 97 | 45
5 | N#Cc1cccc(-c2c[nH]c3ncnc(N4CCOC(c5noc(C6CC6)n5)C4)c23)c1 (stereo not drawn) [Example 135, 3-{4-[2-(5-cyclopropyl-1,2,4-oxadiazol-3-yl)morpholin-4-yl]-7H-pyrrolo[2,3-d]pyrimidin-5-yl}benzonitrile] | 47 | 19
6 | CC1(C)CN(c2ncnc3[nH]cc(-c4cccc(C#N)c4)c23)CCO1 [Example 210, 3-[4-(2,2-dimethylmorpholin-4-yl)-7H-pyrrolo[2,3-d]pyrimidin-5-yl]benzonitrile] | 304 | 35.2
7 | COc1ccc(F)cc1-c1c[nH]c2ncnc(N3CC[C@H](F)C3)c12 [Example 185, 5-(5-fluoro-2-methoxyphenyl)-4-[(3S)-3-fluoropyrrolidin-1-yl]-7H-pyrrolo[2,3-d]pyrimidine] | 23 | 15
8 | COCC1CN(c2ncnc3[nH]cc(-c4cccc(C#N)c4)c23)CCO1 (stereo not drawn) [Example 30, 3-{4-[2-(methoxymethyl)morpholin-4-yl]-7H-pyrrolo[2,3-d]pyrimidin-5-yl}benzonitrile] | 121 | 17
9 | C[C@H]1CCCN(c2ncnc3[nH]cc(-c4cccc(C#N)c4F)c23)C1 [Example 67, 2-fluoro-3-{4-[(3S)-3-methylpiperidin-1-yl]-7H-pyrrolo[2,3-d]pyrimidin-5-yl}benzonitrile] | 35 | 11
10 | N#Cc1cccc(-c2c[nH]c3ncnc(N4CCOC(c5ccno5)C4)c23)c1 (stereo not drawn) [Example 219, 3-{4-[2-(1,2-oxazol-5-yl)morpholin-4-yl]-7H-pyrrolo[2,3-d]pyrimidin-5-yl}benzonitrile] | 234 | 37
11 | CN(C)c1ncnc2[nH]cc(-c3cccc(CO)c3)c12 [Example 10, {3-[4-(Dimethylamino)-7H-pyrrolo[2,3-d]pyrimidin-5-yl]phenyl}methanol] | 23 | 34
12 | COCC1CN(c2ncnc3[nH]cc(-c4cccc(C#N)c4)c23)CCO1 (single isomer, unassigned) [Example 74] | 100 | 12
13 | N#Cc1cccc(-c2c[nH]c3ncnc(N4CCCC(O)C4)c23)c1F (stereo not drawn) [Example 178, 2-fluoro-3-[4-(3-hydroxypiperidin-1-yl)-7H-pyrrolo[2,3-d]pyrimidin-5-yl]benzonitrile] | 42 | 9
14 | N#Cc1cccc(-c2c[nH]c3ncnc(N4CC5COCC5C4)c23)c1 [Example 207, rel-3-{4-[(3aS,6aS)-tetrahydro-1H-furo[3,4-c]pyrrol-5(3H)-yl]-7H-pyrrolo[2,3-d]pyrimidin-5-yl}benzonitrile] | 687 | 223
15 | N#Cc1cccc(-c2c[nH]c3ncnc(N4CCCC(c5cc[nH]n5)C4)c23)c1 (stereo not drawn) [Example 37, 3-{4-[3-(1H-pyrazol-3-yl)piperidin-1-yl]-7H-pyrrolo[2,3-d]pyrimidin-5-yl}benzonitrile] | 200 | 84
16 | COc1ccc(C#N)cc1-c1c[nH]c2ncnc(N3CCC[C@H](C)C3)c12 [Example 66, 4-methoxy-3-{4-[(3S)-3-methylpiperidin-1-yl]-7H-pyrrolo[2,3-d]pyrimidin-5-yl}benzonitrile] | 51 | 21
17 | N#Cc1cccc(-c2c[nH]c3ncnc(N4CCOC(c5nc(C6CC6)no5)C4)c23)c1 (stereo not drawn) [Example 142, 3-{4-[2-(3-cyclopropyl-1,2,4-oxadiazol-5-yl)morpholin-4-yl]-7H-pyrrolo[2,3-d]pyrimidin-5-yl}benzonitrile] | 84 | 30

Other lines, results leading:

Row | IC50 (mutant G2019S LRRK2) [nM] | IC50 [1] [nM] | Compound
18 | 119 | 35.6 | c1cnc2c(-c3c[nH]c4ncnc(N5CCOCC5)c34)cnn2c1 [Example 216, 4-(morpholin-4-yl)-5-(pyrazolo[1,5-a]pyrimidin-3-yl)-7H-pyrrolo[2,3-d]pyrimidine]
19 | 37 | 32 | COc1cncc(-c2c[nH]c3ncnc(N4CCOCC4)c23)n1 [Example 151, 5-(6-methoxypyrazin-2-yl)-4-(morpholin-4-yl)-7H-pyrrolo[2,3-d]pyrimidine]
20 | 51 | 27 | c1ccc2c(-c3c[nH]c4ncnc(N5CCOCC5)c34)cncc2c1 [Example 104, 4-[4-(morpholin-4-yl)-7H-pyrrolo[2,3-d]pyrimidin-5-yl]isoquinoline]
21 | 7 | 2 | N#Cc1cccc(-c2c[nH]c3ncnc(N4CCOCC4)c23)c1F [Example 78, 2-fluoro-3-[4-(morpholin-4-yl)-7H-pyrrolo[2,3-d]pyrimidin-5-yl]benzonitrile]
22 | 60.5 | 15.8 | c1nc(N2CCOCC2)c2c(-c3cnc4sccn34)c[nH]c2n1 [Example 205, 5-(imidazo[2,1-b][1,3]thiazol-5-yl)-4-(morpholin-4-yl)-7H-pyrrolo[2,3-d]pyrimidine]
23 | 24 | 12 | Fc1cccc(-c2c[nH]c3ncnc(N4CCOCC4)c23)c1F [Example 87, 5-(2,3-difluorophenyl)-4-(morpholin-4-yl)-7H-pyrrolo[2,3-d]pyrimidine]
24 | 13 | 8 | Clc1cccc(-c2c[nH]c3ncnc(N4CCOCC4)c23)c1 [Example 83, 5-(3-chlorophenyl)-4-(morpholin-4-yl)-7H-pyrrolo[2,3-d]pyrimidine]
25 | 74 | 67 | COc1ccccc1-c1c[nH]c2ncnc(N3CCC(F)CC3)c12 [Example 159, 4-(4-fluoropiperidin-1-yl)-5-(2-methoxyphenyl)-7H-pyrrolo[2,3-d]pyrimidine]
26 | 67 | 36 | Cc1cncc(-c2c[nH]c3ncnc(N4CCCC(O)C4)c23)c1 (stereo not drawn) [Example 162, 1-[5-(5-methylpyridin-3-yl)-7H-pyrrolo[2,3-d]pyrimidin-4-yl]piperidin-3-ol]
27 | 69 | 18 | C[C@@H]1CN(c2ncnc3[nH]cc(-c4cccc(C#N)c4)c23)CCO1 [Example 79, 3-{4-[(2R)-2-methylmorpholin-4-yl]-7H-pyrrolo[2,3-d]pyrimidin-5-yl}benzonitrile]
28 | 36 | 28 | Clc1cncc(-c2c[nH]c3ncnc(N4CCOCC4)c23)c1 [Example 150, 5-(5-chloropyridin-3-yl)-4-(morpholin-4-yl)-7H-pyrrolo[2,3-d]pyrimidine]
29 | 33 | 25 | c1nc(N2CCOCC2)c2c(-c3cn[nH]c3)c[nH]c2n1 [Example 8, 4-(Morpholin-4-yl)-5-(1H-pyrazol-4-yl)-7H-pyrrolo[2,3-d]pyrimidine, formate salt]
30 | 223 | 91 | Cc1ccc(F)cc1-c1c[nH]c2ncnc(N3CCOCC3)c12 [Example 96, 5-(5-fluoro-2-methylphenyl)-4-(morpholin-4-yl)-7H-pyrrolo[2,3-d]pyrimidine]
31 | 78 | 52 | CSc1cccc(-c2c[nH]c3ncnc(N4CCOCC4)c23)c1 [Example 102, 5-[3-(methylsulfanyl)phenyl]-4-(morpholin-4-yl)-7H-pyrrolo[2,3-d]pyrimidine]
32 | 333 | 67 | N#Cc1cccc(-c2c[nH]c3ncnc(N4CCC(F)(F)CC4)c23)c1 [Example 32, 3-[4-(4,4-difluoropiperidin-1-yl)-7H-pyrrolo[2,3-d]pyrimidin-5-yl]benzonitrile]
33 | 513 | 42 | Cc1nc(N2CCOCC2)c2c(-c3cccc(C#N)c3)c[nH]c2n1 [Example 9, 3-[2-Methyl-4-(morpholin-4-yl)-7H-pyrrolo[2,3-d]pyrimidin-5-yl]benzonitrile]
34 | 56 | 17 | N#Cc1cccc(-c2c[nH]c3ncnc(N4CCC(F)CC4)c23)c1 [Example 33A, 3-[4-(4-fluoropiperidin-1-yl)-7H-pyrrolo[2,3-d]pyrimidin-5-yl]benzonitrile]
35 | 28 | 6 | N#Cc1cccc(-c2c[nH]c3ncnc(N4CCCCC4)c23)c1 [Example 12, 3-[4-(piperidin-1-yl)-7H-pyrrolo[2,3-d]pyrimidin-5-yl]benzonitrile]
36 | 90.1 | 13.2 | Cc1c(C#N)cccc1-c1c[nH]c2ncnc(N3CCOCC3)c12 [Example 203, 2-methyl-3-[4-(morpholin-4-yl)-7H-pyrrolo[2,3-d]pyrimidin-5-yl]benzonitrile]
37 | 43 | 12 | Cc1[nH]c2ncnc(N3CCOCC3)c2c1-c1cccc(C#N)c1 [Example 2, 3-[6-Methyl-4-(morpholin-4-yl)-7H-pyrrolo[2,3-d]pyrimidin-5-yl]benzonitrile]
38 | 64 | 14 | Cc1cc(C#N)cc(-c2c[nH]c3ncnc(N4CCOCC4)c23)c1 [Example 111, 3-methyl-5-[4-(morpholin-4-yl)-7H-pyrrolo[2,3-d]pyrimidin-5-yl]benzonitrile]
39 | 89 | 47 | Cc1[nH]c2ncnc(N3CCOCC3)c2c1-c1cnn(C)c1 [Example 117, 6-methyl-5-(1-methyl-1H-pyrazol-4-yl)-4-(morpholin-4-yl)-7H-pyrrolo[2,3-d]pyrimidine]
